Experimental findings from patent US9670193B2 (Novartis AG, priority 2011, dated 2017) are described below.

Assay type in all cases: biochemical
Conditions in all cases: 5 μM substrate, 2 hours at room temperature

Experiment [1] addresses Human recombinant full length HDAC6 (Homo sapiens (Human), UniProt Q9UBN7). Kind of experiment: HDAC6 assay (Test 3), acetyl-Gly-Ala-Lys(acetyl)-AMC substrate. The method, then:
(§1) Human recombinant HDAC4 was expressed in full length form (aa 2-1084) in Sf9 insect cells (obtained from ATCC) using baculovirus generated with Bac-to-Bac system (Invitrogen). Test compounds were serially diluted to reach final test concentrations from 0.000128 μM to 10 μM. HDAC4 and test compounds were incubated in 25 mM Tris buffer pH 8.0 containing 137 mM NaCl, 2.7 mM KCl, 1 mM MgCl2, 0.05% (w/v) bovine serum albumine and 0.005% (v/v) Triton-X-100 for 2 hours at room temperature in presence of 5 μM of acetyl-Gly-Ala-Lys(ε-trifluoroacetyl)-AMC (AMC=7-amino-4-methyl coumarin) in a final volume of 9 μl. Control wells with HDAC4 only (positive control) and without HDAC4 (negative control) were included on the microplate. Bovine trypsin (4.5 μl of a 300 nM solution) was added and the plate incubated for additional 15 minutes at room temperature. The plate was placed in a fluorescence microplate reader, and read at an excitation wavelength of 360 nm and an emission wavelength of 450 nm with a 10 nm bandpath. Fluorescence values for all wells containing HDAC4 (positive control and wells with test compound) were corrected by subtracting negative control fluorescence values, and IC50 values were calculated by fitting the dose-response curves to a 4-parameter logistic function.
Test 3: HDAC6 Assay Description
A similar assay procedure as described in Test 1 was used for HDAC6. Human recombinant full length HDAC6 expressed in a baculovirus expression system was purchased from BPS BioSciences (San Diego, Calif., U.S.A.). The substrate used in the […] assay was 5 μM of acetyl-Gly-Ala-Lys (acetyl)-AMC.

A further experiment deals with Human recombinant HDAC4 (Homo sapiens (Human), UniProt P56524). Kind of experiment: HDAC4 assay (Test 1), fluorescence, acetyl-Gly-Ala-Lys(ε-trifluoroacetyl)-AMC substrate. The method, then:
Test 1: HDAC4 Assay Description
as §1

The target in experiment [2] is Human recombinant full length HDAC1 (Homo sapiens (Human), UniProt Q13547). Kind of experiment: HDAC1 assay (Test 2), acetyl-Gly-Ala-Lys(acetyl)-AMC substrate. The method, then:
as §1
Test 2: HDAC1 Assay Description
A similar assay procedure as described in Test 1 was used for HDAC1. Human recombinant full length HDAC1 expressed in a baculovirus expression system was purchased from BPS BioSciences (San Diego, Calif., U.S.A.). The substrate used in the […] assay was 5 μM of acetyl-Gly-Ala-Lys(acetyl)-AMC.

Human recombinant HDAC4, sequence (P56524 2-1084): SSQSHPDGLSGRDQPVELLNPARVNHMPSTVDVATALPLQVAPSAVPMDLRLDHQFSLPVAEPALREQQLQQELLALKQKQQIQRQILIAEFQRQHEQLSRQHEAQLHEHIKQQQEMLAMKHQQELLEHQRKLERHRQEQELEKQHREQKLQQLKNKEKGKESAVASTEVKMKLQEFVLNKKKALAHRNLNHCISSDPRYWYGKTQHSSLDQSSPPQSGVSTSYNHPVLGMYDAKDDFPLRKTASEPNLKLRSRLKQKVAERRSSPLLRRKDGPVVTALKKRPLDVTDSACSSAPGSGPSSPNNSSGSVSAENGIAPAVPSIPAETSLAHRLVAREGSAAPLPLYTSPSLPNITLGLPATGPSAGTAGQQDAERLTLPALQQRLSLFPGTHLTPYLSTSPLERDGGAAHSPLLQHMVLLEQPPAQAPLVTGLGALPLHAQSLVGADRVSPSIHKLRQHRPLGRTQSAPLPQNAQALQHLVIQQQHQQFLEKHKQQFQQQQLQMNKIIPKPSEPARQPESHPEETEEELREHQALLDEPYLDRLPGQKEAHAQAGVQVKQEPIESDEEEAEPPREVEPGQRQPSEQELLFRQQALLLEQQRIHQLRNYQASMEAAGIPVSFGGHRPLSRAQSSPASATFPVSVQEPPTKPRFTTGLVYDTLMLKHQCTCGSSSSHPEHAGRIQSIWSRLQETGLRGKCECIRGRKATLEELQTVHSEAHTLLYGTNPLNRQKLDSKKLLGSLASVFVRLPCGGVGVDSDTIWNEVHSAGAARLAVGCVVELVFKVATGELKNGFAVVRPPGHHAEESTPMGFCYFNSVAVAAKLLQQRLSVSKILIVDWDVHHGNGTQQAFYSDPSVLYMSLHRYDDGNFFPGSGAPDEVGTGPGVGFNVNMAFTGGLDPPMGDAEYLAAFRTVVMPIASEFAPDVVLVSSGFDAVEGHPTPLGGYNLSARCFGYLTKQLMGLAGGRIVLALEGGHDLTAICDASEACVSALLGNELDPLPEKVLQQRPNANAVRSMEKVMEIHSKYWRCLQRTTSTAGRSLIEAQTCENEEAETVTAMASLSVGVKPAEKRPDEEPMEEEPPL
Human recombinant full length HDAC1, sequence (Q13547 whole entry): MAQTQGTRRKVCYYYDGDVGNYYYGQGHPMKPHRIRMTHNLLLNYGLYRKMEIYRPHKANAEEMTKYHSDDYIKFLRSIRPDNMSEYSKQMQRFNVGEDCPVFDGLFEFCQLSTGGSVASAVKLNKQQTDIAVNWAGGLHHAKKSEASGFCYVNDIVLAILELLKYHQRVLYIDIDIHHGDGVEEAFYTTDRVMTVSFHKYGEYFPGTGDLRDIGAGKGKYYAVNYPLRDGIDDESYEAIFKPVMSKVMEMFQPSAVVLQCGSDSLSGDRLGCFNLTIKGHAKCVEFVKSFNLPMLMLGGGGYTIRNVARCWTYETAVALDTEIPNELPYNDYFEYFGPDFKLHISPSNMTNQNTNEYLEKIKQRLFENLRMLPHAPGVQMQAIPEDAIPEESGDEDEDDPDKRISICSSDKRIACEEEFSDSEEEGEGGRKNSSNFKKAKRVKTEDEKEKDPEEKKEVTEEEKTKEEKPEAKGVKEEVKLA
Human recombinant full length HDAC6, sequence (Q9UBN7 whole entry, the tested form may be a part): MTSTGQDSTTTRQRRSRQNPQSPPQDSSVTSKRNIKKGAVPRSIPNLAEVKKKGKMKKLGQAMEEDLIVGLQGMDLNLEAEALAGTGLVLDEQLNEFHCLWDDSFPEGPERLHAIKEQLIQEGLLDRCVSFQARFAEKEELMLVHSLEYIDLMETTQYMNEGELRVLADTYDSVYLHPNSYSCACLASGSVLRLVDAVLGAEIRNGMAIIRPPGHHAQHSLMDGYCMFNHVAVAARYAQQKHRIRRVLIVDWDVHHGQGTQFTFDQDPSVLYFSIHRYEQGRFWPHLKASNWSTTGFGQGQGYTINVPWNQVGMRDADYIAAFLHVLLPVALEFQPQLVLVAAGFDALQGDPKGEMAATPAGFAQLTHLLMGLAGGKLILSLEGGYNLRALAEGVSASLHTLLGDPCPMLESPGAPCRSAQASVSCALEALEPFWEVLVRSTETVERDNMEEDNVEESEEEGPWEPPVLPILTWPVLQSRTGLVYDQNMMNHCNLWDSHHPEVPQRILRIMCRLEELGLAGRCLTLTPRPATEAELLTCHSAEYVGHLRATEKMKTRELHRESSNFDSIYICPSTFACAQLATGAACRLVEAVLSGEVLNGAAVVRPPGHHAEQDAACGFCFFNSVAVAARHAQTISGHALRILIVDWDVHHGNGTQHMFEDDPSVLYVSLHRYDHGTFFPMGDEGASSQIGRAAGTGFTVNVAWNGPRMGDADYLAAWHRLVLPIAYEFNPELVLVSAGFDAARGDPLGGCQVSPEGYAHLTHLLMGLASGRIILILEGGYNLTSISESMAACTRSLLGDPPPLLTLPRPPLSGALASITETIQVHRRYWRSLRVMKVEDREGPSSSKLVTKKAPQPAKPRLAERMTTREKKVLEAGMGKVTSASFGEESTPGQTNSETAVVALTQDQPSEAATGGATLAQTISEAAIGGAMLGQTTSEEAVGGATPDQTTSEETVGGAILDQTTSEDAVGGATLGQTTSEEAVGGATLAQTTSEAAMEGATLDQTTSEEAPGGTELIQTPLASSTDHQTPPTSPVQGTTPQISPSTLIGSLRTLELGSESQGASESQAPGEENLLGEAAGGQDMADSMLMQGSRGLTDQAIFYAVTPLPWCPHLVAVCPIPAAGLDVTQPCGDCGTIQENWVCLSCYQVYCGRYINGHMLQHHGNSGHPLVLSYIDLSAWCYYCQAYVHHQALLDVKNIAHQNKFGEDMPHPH

Consider `N#Cc1ccc(C(=O)Nc2cnc(-c3noc(C(F)(F)F)n3)cn2)cc1` [Example 2, 4-Cyano-N-(5-(5-(trifluoromethyl)-1,2,4-oxadiazol-3-yl)pyrazin-2-yl)benzamide], for which the IC50 (usually the point on the concentration scale where inhibition reaches its midpoint) is 2600 nM in experiment [1], 1400 nM at Human recombinant HDAC4 and above 10000 nM in experiment [2].
On the same counts, the results for `C[C@@H](CO)NC(=O)c1ccc(-c2noc(C(F)(F)F)n2)nc1` [Example 20, (S)—N-(1-hydroxypropan-2-yl)-6-(5-(trifluoromethyl)-1,2,4-oxadiazol-3-yl)nicotinamide] are above 10000 nM, 4300 nM and above 10000 nM.
Regarding `C[C@H](CN(C)Cc1ccccc1)NC(=O)c1ccc(-c2noc(C(F)(F)F)n2)nc1` [Example 21, (R)—N-(1-(benzyl(methyl)amino)propan-2-yl)-6-(5-(trifluoromethyl)-1,2,4-oxadiazol-3-yl)nicotinamide], the half-maximal inhibitory concentration (IC50) in experiment [1] was above 10000 nM; at Human recombinant HDAC4, 18 nM; in experiment [2] it was above 10000 nM.
`Cc1cc(C(C)Nc2ncc(-c3noc(C(F)(F)F)n3)cn2)ccn1` (stereo not drawn) [Example 16]: the results for the concentration for half-maximal inhibition (IC50) (in experiment [1]; on Human recombinant HDAC4; in experiment [2]) were 350 nM, 44 nM and 1600 nM, respectively.
On the same counts, the results for `FC(F)(F)c1nc(-c2cnc(NCc3ccccc3)nc2)no1` [Example 4, N-benzyl-5-(5-(trifluoromethyl)-1,2,4-oxadiazol-3-yl)pyrimidin-2-amine] are 320 nM, 36 nM and above 10000 nM.
On the same counts, the results for `FC(F)(F)c1nc(-c2cnc(NCc3ccccn3)c(Cl)c2)no1` [Example 39, 3-chloro-N-(pyridin-2-ylmethyl)-5-(5-(trifluoromethyl)-1,2,4-oxadiazol-3-yl)pyridin-2-amine] are 1900 nM, 37 nM and 2500 nM.
Regarding `C[C@H](CN(C)C)NC(=O)c1ccc(-c2noc(C(F)(F)F)n2)cn1` [Example 24, (R)—N-(1-(dimethylamino)propan-2-yl)-5-(5-(trifluoromethyl)-1,2,4-oxadiazol-3-yl)picolinamide], the IC50 in experiment [1] was above 10000 nM; on Human recombinant HDAC4, 990 nM; in experiment [2], above 10000 nM.
Regarding `FC(F)(F)c1nc(-c2cnc(NCc3ccccc3)c(Cl)c2)no1` [Example 33, N-benzyl-3-chloro-5-(5-(trifluoromethyl)-1,2,4-oxadiazol-3-yl)pyridin-2-amine], the IC50 in experiment [1] was above 10000 nM; on Human recombinant HDAC4 it was 93 nM; in experiment [2], above 10000 nM.
For the molecule `C[C@@H](Nc1ncc(-c2noc(C(F)(F)F)n2)cn1)c1ccccc1` [Example 12, (R)—N-(1-phenylethyl)-5-(5-(trifluoromethyl)-1,2,4-oxadiazol-3-yl)pyrimidin-2-amine], the half-maximal inhibitory concentration (IC50) worked out at 340 nM in experiment [1], 49 nM at Human recombinant HDAC4 and 3500 nM in experiment [2].
With `CC(=O)Nc1cnc(-c2noc(C(F)(F)F)n2)cn1` [Example 1, N-(5-(5-(trifluoromethyl)-1,2,4-oxadiazol-3-yl)pyrazin-2-yl)acetamide], the IC50 is 1700 nM in experiment [1], 460 nM on Human recombinant HDAC4 and above 10000 nM in experiment [2].
On the same counts, the results for `FC(F)(F)c1nc(-c2cnc(NCc3ccncc3)nc2)no1` [Example 6, N-(pyridin-4-ylmethyl)-5-(5-(trifluoromethyl)-1,2,4-oxadiazol-3-yl)pyrimidin-2-amine] are 990 nM, 44 nM and 620 nM.
On the same counts, the results for `CCN(CC)C[C@@H](C)NC(=O)c1ccc(-c2noc(C(F)(F)F)n2)nc1` [Example 23, (R)—N-(1-(diethylamino)propan-2-yl)-6-(5-(trifluoromethyl)-1,2,4-oxadiazol-3-yl)nicotinamide] are above 10000 nM, 28 nM and above 10000 nM.
For the molecule `FC(F)(F)c1nc(-c2cnc(NCc3ccncc3)c(Cl)c2)no1` [Example 35, 3-chloro-N-(pyridin-4-ylmethyl)-5-(5-(trifluoromethyl)-1,2,4-oxadiazol-3-yl)pyridin-2-amine], the half-inhibitory concentration (IC50) in experiment [1] was found to be 1800 nM; on Human recombinant HDAC4 it was 11 nM; in experiment [2], 1100 nM.
For the molecule `CC(Nc1ncc(-c2noc(C(F)(F)F)n2)cn1)c1ccccc1` (stereo not drawn) [Example 7, N-(1-phenylethyl)-5-(5-(trifluoromethyl)-1,2,4-oxadiazol-3-yl)pyrimidin-2-amine], the values for the half-maximal inhibitory concentration (IC50) (in experiment [1]; at Human recombinant HDAC4; in experiment [2]) were above 400 nM, 120 nM and above 10000 nM, respectively.
As to `Cc1cccc(CNc2ncc(-c3noc(C(F)(F)F)n3)cn2)n1` [Example 11, N-((6-methylpyridin-2-yl)methyl)-5-(5-(trifluoromethyl)-1,2,4-oxadiazol-3-yl)pyrimidin-2-amine], the concentration for half-maximal inhibition (IC50) worked out at 550 nM in experiment [1], 240 nM at Human recombinant HDAC4 and 510 nM in experiment [2].
`C[C@@H](Nc1ccc(-c2noc(C(F)(F)F)n2)nn1)c1ccncc1` [Example 45, (R)—N-(1-(Pyridin-4-yl)ethyl)-6-(5-(trifluoromethyl)-1,2,4-oxadiazol-3-yl)pyridazin-3-amine]: the IC50 in experiment [1] was 610 nM; at Human recombinant HDAC4, 65 nM; in experiment [2], 3200 nM.
With `CC(Nc1ncc(-c2noc(C(F)(F)F)n2)cc1Cl)c1ccncc1` (stereo not drawn) [Example 36, 3-chloro-N-(1-(pyridin-4-yl)ethyl)-5-(5-(trifluoromethyl)-1,2,4-oxadiazol-3-yl)pyridin-2-amine], the 50% inhibitory concentration (IC50) amounted to 1100 nM in experiment [1], 6.4 nM on Human recombinant HDAC4 and 860 nM in experiment [2].
On to `CC(Nc1ncc(-c2noc(C(F)(F)F)n2)cn1)c1ccncc1` (stereo not drawn) [Example 9, N-(1-(pyridin-4-yl)ethyl)-5-(5-(trifluoromethyl)-1,2,4-oxadiazol-3-yl)pyrimidin-2-amine], for which the figures for the IC50 (in experiment [1]; at Human recombinant HDAC4; in experiment [2]) were 560 nM, 22 nM and 4100 nM, respectively.
With `C[C@H](Nc1cnc(-c2noc(C(F)(F)F)n2)nc1)c1ccccc1` [Example 42, (S)—N-(1-Phenylethyl)-2-(5-(trifluoromethyl)-1,2,4-oxadiazol-3-yl)pyrimidin-5-amine], the IC50 in experiment [1] is 1900 nM; on Human recombinant HDAC4, 5000 nM; in experiment [2] it was above 10000 nM.
In the same order, the values of `CCN(CC)C[C@H](NC(=O)c1ccc(-c2noc(C(F)(F)F)n2)nc1)C(C)C` [Example 22, (R)—N-(1-(diethylamino)-3-methylbutan-2-yl)-6-(5-(trifluoromethyl)-1,2,4-oxadiazol-3-yl)nicotinamide] are above 10000 nM, 160 nM and above 10000 nM.
On the same counts, the results for `CN(CCc1ccncc1)c1ncc(-c2noc(C(F)(F)F)n2)cn1` [Example 14, N-methyl-N-(2-(pyridin-4-yl)ethyl)-5-(5-(trifluoromethyl)-1,2,4-oxadiazol-3-yl)pyrimidin-2-amine] are above 10000 nM, 110 nM and 7600 nM.
Turning to `Cc1cc(CN(C)c2ncc(-c3noc(C(F)(F)F)n3)cn2)ccn1` [Example 17, N-methyl-N-((2-methylpyridin-4-yl)methyl)-5-(5-(trifluoromethyl)-1,2,4-oxadiazol-3-yl)pyrimidin-2-amine], the half-inhibitory concentration (IC50) in experiment [1] turned out to be 3500 nM; at Human recombinant HDAC4, 34 nM; in experiment [2] it was 2200 nM.
